# Measured values taken from patent US20210030761A1, “TREATMENT AND PREVENTION OF ALPHA HERPES VIRUS INFECTION” (THE REGENTS OF THE UNIVERSITY OF COLORADO, a body corporate, priority 2018, published 2021).
# What was measured:
# uninfected HA-sp = conditions: tested at 1-100 μM, data not shown
# Protocol: (§1) Cell Culture and Infection: Primary human spinal astrocytes (HA-sp; Sciencell, Carlsbad, Calif.) were seeded at 5,000 cells/cm' in a basal astrocyte medium containing 2% fetal bovine serum (FBS), 1% astrocyte growth supplement, and 1% 100× penicillin-streptomycin (Sciencell). After 24 hours, medium was changed to basal astrocyte medium containing 0.1% FBS and 1% 100× penicillin-streptomycin that was replenished every 72 hours for 7 days to establish quiescence. On day 7, spinal astrocytes were co-cultivated with VZV-infected spinal astrocytes (40 pfu/mL) or mock-infected spinal astrocytes. […] Light microscopy images to observe a cytopathic effect were obtained at 12, 24, 48 and 72 HPI followed by DNA extraction and PCR quantification of VZV DNA as described below. Substance P ELISA: Substance P was quantitated from mock- and VZV-infected HA-sp using a colorimetric competitive enzyme immunoassay kit according to the manufacturer's instructions (Enzo, Farmingdale, N.Y.). The sensitivity range was 9.76-10,000 pg/mL, as determined by controls run on the same assay as samples. Immunofluorescence Assay: HA-sp were propagated and treated as described above in an ibidi 24-well μ-Plate (ibidi, Martinsried, Germany). […] GFAP and NK-1R were detected using a 1:500 dilution of chicken anti-GFAP (Abcam) and a 1:100 dilution of rabbit anti-NK-1R (Novus Biologicals LLC, Littleton, Colo.), respectively. […]
# [1] = system: VZV-infected primary human spinal astrocytes (HA-sp); test: Immunocytochemistry of cellular processes and NK-1R localization in VZV-infected HA-sp; assay type: cell-based; conditions: 3 DPI; 10 μM aprepitant; versus vehicle
# Protocol: as §1
# VZV = test: Total VZV DNA in adult primary human perineurial cells (HPNCs); assay type: cell-based, varicella zoster virus; conditions: 72 HPI
# From the text: At 12, 24, 48, and 72 HPI, cells were visualized by light microscopy in the untreated and treated cultures and harvested for DNA.
# [2] = system: quiescent uninfected spinal astrocytes; test: Substance P treatment of uninfected spinal astrocytes: NK-1R distribution by immunofluorescence and process formation by CellTracker Deep Red; assay type: cell-based, human; conditions: 10^−6 M substance P for 60 minutes
# Protocol: as §1
molecule,measurement,setting,value
C[C@@H](O[C@H]1OCCN(Cc2n[nH]c(=O)[nH]2)[C@H]1c1ccc(F)cc1)c1cc(C(F)(F)F)cc(C(F)(F)F)c1 [aprepitant],optimal concentration to avoid cell death,uninfected HA-sp,10 µM
same,lamellipodia formation in VZV-infected cells,[1],reduction in lamellipodia formation
C[C@@H](OC[C@@]1(c2ccccc2)CC[C@]2(CCC(=O)N2)CN1)c1cc(C(F)(F)F)cc(C(F)(F)F)c1 [rolapitant],total VZV DNA,VZV; treated at 24 HPI,significantly reduced total VZV DNA
same,total VZV DNA,VZV; treated at time of infection,significantly reduced total VZV DNA
substance P,NK-1R localization,[2],detected predominantly in cytoplasm
same,lamellipodia formation,[2]; CellTracker Deep Red,lack of lamellipodia
